Counter-ions that a name gives are not always drawn.
What was measured:
human Cyclin E/CDK2 = biological target: T1, human Cyclin E/CDK2 (Homo sapiens, UniProt P24941); test: CDK2 FlashPlate Assay; format: biochemical; settings: inhibition of Rb phosphorylation, 33P-ATP, 25 minutes at room temperature
T1 construct: made in house; host or cells: insect cells
Protocol: To determine inhibition of CDK2 activity, purified recombinant retinoblastoma (Rb) protein was coated on 96 well FlashPlates (New England Nuclear, Boston, Mass.). […] Recombinant active human Cyclin E/CDK2 complexes were partially purified from extracts of insect cells. […] Plates were incubated for 25 minutes at room temperature with shaking, then washed and counted in the Topcount scintillation counter (Packard Instrument Co., Downers Grove, Ill.). Dilutions of test compounds were tested in duplicate in each assay. The percent inhibition of Rb phosphorylation, which is a measure of the inhibition of CDK2 activity, was determined according to the following formula: [formula]
where “test compound” refers to the average counts per minute of the test duplicates, “nonspecific” refers to the average counts per minute when no Cyclin E/CDK2 was added, and “total” refers to the average counts per minute when no compound was added.

[1] = test system: MDA-MB435 breast carcinoma cell line; test: Tetrazolium dye proliferation assay, MDA-MB435; format: cell-based; settings: MTT, 5 days post addition of test compound, 2000 cells per well
Protocol: (§1) The cell lines used were MDA-MB435, a breast carcinoma dell line and RKO, a colon carcinoma cell line.
(§2) Teh estrogen receptor negative epithelial breast carcinoma line (MDA-MB435) was purchased from American Type Cell Culture Collection (ATCC; Rockville, Md.) and was grown in the medium recommended by ATCC. For analysis of the test compounds on growth of these cells, the cells were plated at 2000 cells per well in a 96-well tissue culture plate, and were incubated overnight at 37° C. with 5% CO2. The next day, the test compounds were dissolved in 100% dimethyl sulfoxide (DMSO) to yield a 10 mM stock solution. […] The compounds were then serially diluted in medium with 1.2% DMSO. One-fourth final volume of the diluted compounds was transferred to 96 well plates. Test compounds were assayed in duplicate. DMSO was added to a row of “control cells” such that the final concentration of DMSO in each well was 0.3%. Wells to which no cells were added served as the “blank.” Wells to which no inhibitor was added served as “no inhibitor control”. The plates were returned to the incubator, and 5 days post addition of test compound, were analyzed as described below.
(§3) 3-(4,5-Dimethylthiazole-2-yl)-2,5-diphenyl-2H-tetrazolium bromide (thiazolyl blue; MTT) was added to each well to yield a final concentration of 1 mglmL. The plates were then incubated at 37° C. for 3 hours. The plates were centrifuged at 1000 rpm for 5 minutes prior to aspiration of the MTT-containing medium. The MTT-containing medium was then removed and 100 μL 100% EtOH was added to each well to dissolve the resulting formazan metabolite. To ensure complete dissolution, plates were shaken for 15 minutes at room temperature. Absorbencies were read in a microliter plate reader (Molecular Dynamics) at a wavelength of 570 nm with a 650 nm reference. Percent inhibition was calculated by subtracting the absorbency of the blank (no cell) wells from all wells, then subtracting the division of the average absorbency of each test duplicate by the average of the controls from 1.00. Inhibitory concentrations (IC50) were determined from the linear regression of a plot of the logarithm of the concentration versus the percent inhibition.

[2] = test system: RKO colon carcinoma cell line; test: Tetrazolium dye proliferation assay, RKO; format: cell-based; settings: MTT, 5 days post addition of test compound, 500 cell per well
Protocol: as §1, §2, §3
The colon carcinoma line RKO was also obtained from the ATCC and was tested according to the same protocol provided above except that the cell line RKO was plated at 500 cell per well.

[3] = Homo sapiens, MDA-MB-435, 120 h

Row | SMILES | IC50 (human Cyclin E/CDK2) | IC50 [1, 3] | IC50 ([2]; Colon carcinoma cell, 120 h) | IC50 [1] | IC50 [2]
1 | O=C1Nc2ccc(F)c3c(N4CCNCC4)cc(-c4ccc[nH]4)c1c23 [Example 24, 6-Fluoro-5-piperazin-1-yl-3-(1H-pyrrol-2-yl)-1H-benzo[cd]indol-2-one acetic acid salt] | ≤ 10 µM | ≤ 10 µM | ≤ 10 µM |  | 
2 | NCC[S+]([O-])c1cc(-c2ccc[nH]2)c2c3c(ccc(F)c13)NC2=O (centres unmarked) [Example 42, 5-(2-Amino-ethanesulfinyl)-6-fluoro-3-(1H-pyrrol-2-yl)-1H-benzo[cd]indol-2-one] |  | ≤ 10 µM | ≤ 10 µM |  | 
3 | O=C1Nc2ccc(F)c3c(N4CCCC(CO)C4)cc(-c4ccc[nH]4)c1c23 (centres unmarked) [Example 34, 6-Fluoro-5-(3-hydroxymethyl-piperidin-1-yl)-3-(1H-pyrrol-2-yl)-1H-benzo[cd]indol-2one] |  | ≤ 10 µM | ≤ 10 µM |  | 
4 | O=C1Nc2ccc(F)c3c([S+]([O-])CCO)cc(-c4ccc[nH]4)c1c23 (centres unmarked) [Example 37, 6-Fluoro-5-(2-hydroxy-ethanesulfinyl)-3-(1H-pyrrol-2-yl)-1H-benzo[cd]indol-2-one] |  |  | ≤ 10 µM |  | 
5 | O=C1Nc2ccc(F)c3c(N4CCCC(O)C4)cc(-c4ccc[nH]4)c1c23 (centres unmarked) [Example 35, 6-Fluoro-5-(3-hydroxy-piperidin-1-yl)-3-(1H-pyrrol-2-yl)-1H-benzo[cd]indol-2-one] |  | ≤ 10 µM | ≤ 10 µM |  | 
6 | CCc1cc(-c2ccc[nH]2)c2c3c(ccc(F)c13)NC2=O [Example 27, 5-Ethyl-6-fluoro-3-(1H-pyrrol-2-yl)-1H-benzo[cd]indol-2-one] | ≤ 10 µM |  |  |  | 
7 | O=C1Nc2ccc(F)c3c(N4CCOCC4)cc(-c4ccc[nH]4)c1c23 [Example 23, 6-Fluoro-5-morpholin-4-yl-3-(1H-pyrrol-2-yl)-1H-benzo[cd]indol-2-one] | ≤ 10 µM | ≤ 10 µM | ≤ 10 µM |  | 
8 | NCC[S+]([O-])c1cc(-c2ccc[nH]2)c2c3c(ccc(F)c13)NC2=O (centres unmarked) [Example 43, 5-(2-Amino-ethanesulfinyl)-6-fluoro-3-(1H-pyrrol-2-yl)-1H-benzo[cd]indol-2-one hydrochloride salt] |  |  |  | ≤ 10 µM | ≤ 10 µM
9 | Cc1cc(-c2ccc[nH]2)c2c3c(ccc(F)c13)NC2=O [Example 25, 6-Fluoro-5-methyl-3-(1H-pyrrol-2-yl)-1H-benzo[cd]indol-2-one] | ≤ 10 µM |  |  |  | 
10 | O=C1Nc2ccc(F)c3c(SCCO)cc(-c4ccc[nH]4)c1c23 [Example 36, 6-Fluoro-5-(2-hydroxyethylsulfanyl)-3-(1H-pyrrol-2-yl)-1H-benzo[cd]indol-2-one] | ≤ 10 µM | ≤ 10 µM | ≤ 10 µM |  | 
11 | NCCOc1cc(-c2ccc[nH]2)c2c3c(ccc(F)c13)NC2=O [Example 19, 5-(2-Amino-ethoxy)-6-fluoro-3-(1H-pyrrol-2-yl)-1H-benzo[cd]indol-2-one] |  | ≤ 10 µM | ≤ 10 µM |  | 
12 | O=C1Nc2ccc(F)c3c(S(=O)(=O)CCO)cc(-c4ccc[nH]4)c1c23 [Example 38, 6-Fluoro-5-(2-hydroxy-ethanesulfonyl)-3-(1H-pyrrol-2-yl)-1H-benzo[cd]indol-2-one] | ≤ 10 µM | ≤ 10 µM | ≤ 10 µM |  | 
13 | COc1cc(-c2ccc[nH]2)c2c3c(ccc(F)c13)NC2=O [Example 13, 6-Fluoro-5-methoxy-3-(1H-pyrrol-2-yl)-1H-benzo[cd]indol-2-one] | ≤ 10 µM | ≤ 10 µM | ≤ 10 µM |  | 
14 | O=C1Nc2ccc(F)c3c(OCCO)cc(-c4ccc[nH]4)c1c23 [Example 16, 6-Fluoro-5-(2-hydroxyethoxy)-3-(1H-pyrrol-2-yl)-1H-benzo[cd]indol-2-one] | ≤ 10 µM | ≤ 10 µM | ≤ 10 µM |  | 
15 | NCCSc1cc(-c2ccc[nH]2)c2c3c(ccc(F)c13)NC2=O [Example 40, 5-(2-Amino-ethylsulfanyl)-6-fluoro-3-(1H-pyrrol-2-yl)-1H-benzo[cd]indol-2-one] | ≤ 10 µM | ≤ 10 µM | ≤ 10 µM |  | 

More lines, now with the values ahead:

Row | IC50 (human Cyclin E/CDK2) | IC50 [1, 3] | IC50 ([2]; Colon carcinoma cell, 120 h) | IC50 [1] | IC50 [2] | SMILES
16 | ≤ 10 µM | ≤ 10 µM | ≤ 10 µM |  |  | NCCCNc1cc(-c2ccc[nH]2)c2c3c(ccc(F)c13)NC2=O [Example 21, 5-(3-Amino-propylamino)-6-fluoro-3-(1H-pyrrol-2-yl)-1H-benzo[cd]indol-2-one acetic acid salt]
17 | ≤ 10 µM | ≤ 10 µM | ≤ 10 µM |  |  | O=C1Nc2ccc(F)c3c(N4CC[C@@H](O)C4)cc(-c4ccc[nH]4)c1c23 [Example 32]
18 | ≤ 10 µM | ≤ 10 µM | ≤ 10 µM |  |  | NCCS(=O)(=O)c1cc(-c2ccc[nH]2)c2c3c(ccc(F)c13)NC2=O [Example 44, 5-(2-Amino-ethanesulfonyl)-6-fluoro-3-(1H-pyrrol-2-yl)-1H-benzo[cd]indol-2-one]
19 | ≤ 10 µM | ≤ 10 µM | ≤ 10 µM |  |  | O=C1Nc2ccc(F)c3c(NCCO)cc(-c4ccc[nH]4)c1c23 [Example 15, 6-Fluoro-5-(2-hydroxy-ethylamino)-3-(1H-pyrrol-2-yl)-1H-benzo[cd]indol-2-one]
20 | ≤ 10 µM |  |  |  |  | NCCOc1cc(-c2ccc[nH]2)c2c3c(ccc(F)c13)NC2=O [Example 20, 5-(2-Amino-ethoxy)-6-fluoro-3-(1H-pyrrol-2-yl)-1H-benzo[cd]indol-2-one methanesulfonic acid salt]
21 | ≤ 10 µM | ≤ 10 µM | ≤ 10 µM |  |  | O=C1Nc2ccc(F)c3c2C1=C(c1ccc[nH]1)CC3 [Example 6, 6-fluoro-3-(1H-pyrrol-2-yl)-4,5-dihydro-1H-benzo[cd]indol-2-one]
22 | ≤ 10 µM | ≤ 10 µM | ≤ 10 µM |  |  | CC(C)(N)CNc1cc(-c2ccc[nH]2)c2c3c(ccc(F)c13)NC2=O [Example 22, 5-(2-Amino-2-methyl-propylamino)-6-fluoro-3-(1H-pyrrol-2-yl)-1H-benzo[cd]indol-2-one]
23 | ≤ 10 µM | ≤ 10 µM | ≤ 10 µM |  |  | O=C1Nc2ccc(F)c3c(N4CCC(O)CC4)cc(-c4ccc[nH]4)c1c23 [Example 33, 6-Fluoro-5-(4-hydroxy-piperidin-1-yl)-3-(1H-pyrrol-2-yl)-1H-benzo[cd]indol-2-one]
24 | ≤ 10 µM |  |  |  |  | CCN(CC)CCNc1cc(-c2ccc[nH]2)c2c3c(ccc(F)c13)NC2=O [Example 31, 5-(2-Diethylamino-ethylamino)-6-fluoro-3-(1H-pyrrol-2-yl)-1H-benzo[cd]indol-2-one]
25 | ≤ 10 µM |  |  |  |  | CCC(C)c1cc(-c2ccc[nH]2)c2c3c(ccc(F)c13)NC2=O (racemic) [Example 26, (rac)-5-sec-Butyl-6-fluoro-3-(1H-pyrrol-2-yl)-1H-benzo[cd]indol-2-one]
26 | ≤ 10 µM |  |  |  |  | O=C1Nc2ccc(F)c3c(OCCCO)cc(-c4ccc[nH]4)c1c23 [Example 17, 6-Fluoro-5-(3-hydroxy-propoxy)-3-(1H-pyrrol-2-yl)-1H-benzo[cd]indol-2-one]
27 | ≤ 10 µM | ≤ 10 µM | ≤ 10 µM |  |  | Cc1c[nH]c(-c2cc(SCCN)c3c(F)ccc4c3c2C(=O)N4)c1C [Example 50, 5-(2-Amino-ethylsulfanyl)-6-fluoro-3-(3,4-dimethyl-1H-pyrrol-2-yl)-1H-benzo[cd]indol-2-one trifluoroacetic acid salt]
28 | ≤ 10 µM |  |  |  |  | O=C1Nc2ccc(F)c3c(N4CCNC4=O)cc(-c4ccc[nH]4)c1c23 [Example 28, 6-Fluoro-5-(2-oxo-imidazolidin-1-yl)-3-(1H-pyrrol-2-yl)-1H-benzo[cd]indol-2-one]
29 | ≤ 10 µM |  |  |  |  | CC(=O)NCCNc1cc(-c2ccc[nH]2)c2c3c(ccc(F)c13)NC2=O [Example 29, N-[2-[6-Fluoro-2oxo-3-(1H-pyrrol-2-yl)-1,2-dihydro-benzo[cd]indol-5-ylamino]-ethyl]-acetamide]
30 | ≤ 10 µM |  |  |  |  | CCOc1cc(-c2ccc[nH]2)c2c3c(ccc(F)c13)NC2=O [Example 14, 5-Ethoxy-6-fluoro-3-(1H-pyrrol-2-yl)-1H-benzo[cd]indol-2-one]
